Laboratory results as given in patent US9114164B2 (MEXICHEM AMANCO HOLDING S.A. DE C.V., priority 2011, dated 2015).

Assay: in vitro aerosolization performance from MDI, Next Generation Impactor (NGI) with HPLC
Type: physicochemical
Conditions: formulated with R-152a rather than R-134a
Method: Drug was weighed directly into standard aluminium 19 mL cans (C128, Presspart, Blackburn, UK). The cans were then crimped with a 50 μL valve (Bespak, Kings Lynn, UK). Finally, the propellant was filled into the cans through the valve using a manual Pamasol crimper/filler (Pamasol, Switzerland). High performance liquid chromatography (HPLC) was used to determine drug content following aerosolization studies (see below). The HPLC machine consisted of a pump, column oven, column coupled to a UV detector (all Agilent 1200, Wokingham, Berkshire, UK). A Hypersil BDS C18 column (Fisher, Loughborough, UK, 5 μm, 250×4.6 mm i.d.) was used for high-throughput analysis of samples. The in vitro aerosolization performance of the formulations was studied using a Next Generation Impactor (NGI, Copley Scientific, Nottingham UK), which was connected to a vacuum pump (GE Motors, NJ, USA). Prior to testing, the cups of the NGI system were coated with 1% v/v silicone oil in hexane to eliminate particle bounce. For each experiment, three actuations of the can were discharged into the NGI at 30 L·min^−1 as per pharmacopeia guidelines. […] The mass of drug deposited on each part of the NGI was determined by HPLC. This protocol was repeated three times for the can, following which, the fine particle dose (FPD) and fine particle fraction of the emitted dose (FPFED) were determined.

- emitted dose, comparison in words: significantly (p<0.05) greater
Substance: salbutamol sulphate
